Consider 37 compounds from patent publication US11261186B2, “Biaryl derivative as GPR120 agonist” (LG CHEM, LTD., priority 2014, dated 2022).

pEC50: −log10 of the molar value. A value given as a limit tells only on which side of the number the result lay.

The target of this experiment is T1, hGPR120 (Homo sapiens, UniProt Q5NUL3).
T1 construct: expressed in transfected cells; host or cells: CHO-K1
T1 sequence (Q5NUL3 1-361): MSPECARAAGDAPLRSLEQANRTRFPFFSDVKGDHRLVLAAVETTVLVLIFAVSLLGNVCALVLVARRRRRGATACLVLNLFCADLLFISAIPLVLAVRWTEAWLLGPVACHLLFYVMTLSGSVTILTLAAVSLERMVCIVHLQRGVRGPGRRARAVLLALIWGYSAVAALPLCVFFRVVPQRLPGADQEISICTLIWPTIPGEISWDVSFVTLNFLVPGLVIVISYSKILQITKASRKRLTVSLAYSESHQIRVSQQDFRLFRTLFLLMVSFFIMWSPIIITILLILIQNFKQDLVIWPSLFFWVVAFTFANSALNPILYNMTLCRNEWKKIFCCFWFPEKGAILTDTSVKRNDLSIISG
The experiment is described as follows: Measurement of Activity of GPR120 Agonist (Cell-Based Assay), Calcium 5 dye fluorescence. Particulars: CHO-K1 cells expressing Ga16 and hGPR120. An outline of the steps: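 After an 18 h incubation at 37 °C, the transfected CHO-K1 cells (Gα16, hGPR120) received Calcium 5 dye for 1 h; compound dilutions in 0.5% DMSO were then injected and emission at 525 nm recorded, with values given as % of the vehicle response.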
As to `O=C(O)CCCOc1c(F)cc(-n2ccc3cccc(Cl)c32)cc1F` [Example 472, 4-[4-(7-chloroindol-1-yl)-2,6-difluoro-phenoxy]butanoic acid], the pEC50 was above 6.70.

Regarding `CN(CCCC(=O)O)c1c(F)cc(-c2ccc(COCC3CC3)o2)cc1F` [Example 473, 4-[4-[5-(cyclopropylmethoxymethyl)-2-furyl]-2,6-difluoro-N-methyl-anilino]butanoic acid], the pEC50 was 5.70 to 6.70. Consider `O=C(O)CCCOc1c(F)cc(-n2ccc3ccc(OCC4CC4)cc32)cc1F` [Example 474, 4-[4-[6-(cyclopropylmethoxy)indol-1-yl]-2,6-difluoro-phenoxy]butanoic acid], for which the pEC50 was above 6.70.

For the compound `CN(CCCC(=O)O)c1c(F)cc(-n2ccc3cccc(Cl)c32)cc1F` [Example 475, 4-[4-(7-chloroindol-1-yl)-2,6-difluoro-N-methyl-anilino]butanoic acid], the pEC50 is above 6.70. Regarding `O=C(O)CCCOc1c(F)cc(-n2ccc3ccc(OC4CCC4)cc32)cc1F` [Example 476, 4-[4-[6-(cyclobutoxy)indol-1-yl]-2,6-difluoro-phenoxy]butanoic acid], the pEC50 was above 6.70. Consider `O=C(O)CCCOc1c(F)cc(-n2ccc3cc(OC4CCC4)ccc32)cc1F` [Example 477, 4-[4-[5-(cyclobutoxy)indol-1-yl]-2,6-difluoro-phenoxy]butanoic acid], for which the pEC50 is 5.70 to 6.70. Turning to `COc1cccc2c1ccn2-c1cc(F)c(OCCCC(=O)O)c(F)c1` [Example 478, 4-[2,6-difluoro-4-(4-methoxyindol-1-yl)phenoxy]butanoic acid], the negative-log EC50 (pEC50) was 5.70 to 6.70. Turning to `COc1cccc2ccn(-c3cc(F)c(OCCCC(=O)O)c(F)c3)c12` [Example 479, 4-[2,6-difluoro-4-(7-methoxyindol-1-yl)phenoxy]butanoic acid], the negative logarithm of the EC50 (pEC50) is above 6.70. To `COCc1ccc2c(cnn2-c2cc(F)c(OCCCC(=O)O)c(F)c2)c1` [Example 480, 4-[2,6-difluoro-4-[5-(methoxymethyl)indazol-1-yl]phenoxy]butanoic acid] belongs 4.70 to 5.70; to `O=C(O)CC1CCN(c2c(F)cc(-n3ccc4cccc(Cl)c43)cc2F)CC1` [Example 481, 2-[1-[4-(7-chloroindol-1-yl)-2,6-difluoro-phenyl]-4-piperidyl]acetic acid], 4.70 to 5.70; to `O=C(O)CCCOc1c(F)cc(-n2ncc3ccc(OC4CCC4)cc32)cc1F` [Example 482, 4-[4-[6-(cyclobutoxy)indazol-1-yl]-2,6-difluoro-phenoxy]butanoic acid], above 6.70. `O=C(O)CCCOc1c(F)cc(-n2ncc3ccc(OC4CCC4)cc32)cc1Cl` [Example 483, 4-[2-chloro-4-[6-(cyclobutoxy)indazol-1-yl]-6-fluoro-phenoxy]butanoic acid]: the pEC50 was above 6.70.

For `Cc1cc(OC2CCC2)nc(-c2cc(F)c(N(C)CCCC(=O)O)c(F)c2)n1` [Example 484, 4-[4-[4-(cyclobutoxy)-6-methyl-pyrimidin-2-yl]-2,6-difluoro-N-methyl-anilino]butanoic acid], the pEC50 was above 6.70. With `CN(CCCC(=O)O)c1c(F)cc(-c2nccc(OC3CCC3)n2)cc1F` [Example 485, 4-[4-[4-(cyclobutoxy)pyrimidin-2-yl]-2,6-difluoro-N-methyl-anilino]butanoic acid], the pEC50 is above 6.70. Take `CN(CCCC(=O)O)c1c(F)cc(-c2csc(OC3CCC3)n2)cc1F` [Example 486, 4-[4-[2-(cyclobutoxy)thiazol-4-yl]-2,6-difluoro-N-methyl-anilino]butanoic acid]: the pEC50 is above 6.70. Take `O=C(O)CC1CCN(c2c(F)cc(-n3ncc4ccc(OC5CCC5)cc43)cc2F)CC1` [Example 487, 2-[1-[4-[6-(cyclobutoxy)indazol-1-yl]-2,6-difluoro-phenyl]-4-piperidyl]acetic acid]: the negative logarithm of the EC50 (pEC50) was 5.70 to 6.70. On to `CN(CCCC(=O)O)c1c(F)cc(-c2cncc(OC3CCC3)n2)cc1F` [Example 488, 4-[4-[6-(cyclobutoxy)pyrazin-2-yl]-2,6-difluoro-N-methyl-anilino]butanoic acid], for which the pEC50 was above 6.70.

In the case of `Cc1cc(OCC2CC2)nc(-c2cc(F)c(N(C)CCCC(=O)O)c(F)c2)n1` [Example 489, 4-[4-[4-(cyclopropylmethoxy)-6-methyl-pyrimidin-2-yl]-2,6-difluoro-N-methyl-anilino]butanoic acid], the pEC50 was above 6.70. To `CN(CCCC(=O)O)c1c(F)cc(-c2nccc(OCC3CC3)n2)cc1F` [Example 490, 4-[4-[4-(cyclopropylmethoxy)pyrimidin-2-yl]-2,6-difluoro-N-methyl-anilino]butanoic acid] belongs above 6.70; to `CN(CCCC(=O)O)c1c(F)cc(-c2cncc(OCC3CC3)n2)cc1F` [Example 491, 4-[4-[6-(cyclopropylmethoxy)pyrazin-2-yl]-2,6-difluoro-N-methyl-anilino]butanoic acid], above 6.70; to `CN(CCCC(=O)O)c1c(F)cc(-n2ncc3ccc(OC4CCC4)cc32)cc1F` [Example 492, 4-[4-[6-(cyclobutoxy)indazol-1-yl]-2,6-difluoro-N-methyl-anilino]butanoic acid], above 6.70. For `CN(CCCC(=O)O)c1c(F)cc(-c2cccc(OCC3CC3)n2)cc1F` [Example 493, 4-[4-[6-(cyclopropylmethoxy)-2-pyridyl]-2,6-difluoro-N-methyl-anilino]butanoic acid], the pEC50 is above 6.70. Take `O=C(O)CC1CCN(c2c(F)cc(-n3ncc4ccc(OC5CCC5)cc43)cc2F)C1` (stereo not shown) [Example 494, 2-[1-[4-[6-(cyclobutoxy)indazol-1-yl]-2,6-difluoro-phenyl]pyrrolidin-3-yl]acetic acid]: the pEC50 was 5.70 to 6.70. Consider `CCCOc1cncc(-c2cc(F)c(N3CCC(CC(=O)O)C3)c(F)c2)n1` (stereo not shown) [Example 495, 2-{1-[2,6-difluoro-4-(6-propoxy-pyrazin-2-yl)phenyl]pyrrolidin-3-yl}acetic acid], for which the negative logarithm of the EC50 (pEC50) was above 6.70.

As to `CC(C)COc1cncc(-c2cc(F)c(N3CCC(CC(=O)O)C3)c(F)c2)n1` (stereo not shown) [Example 496, 2-{1-[2,6-difluoro-4-(6-isobutoxy-pyrazin-2-yl)phenyl]pyrrolidin-3-yl}acetic acid], the pEC50 was 5.70 to 6.70. For `O=C(O)CC1CCN(c2c(F)cc(-c3cncc(OC4CCCC4)n3)cc2F)C1` (stereo not shown) [Example 497, 2-{1-[2,6-difluoro-4-(6-cyclopentoxy-pyrazin-2-yl)phenyl]pyrrolidin-3-yl}acetic acid], the negative logarithm of the EC50 (pEC50) was 5.70 to 6.70. With `CCCCOc1cncc(-c2cc(F)c(N3CCC(CC(=O)O)C3)c(F)c2)n1` (stereo not shown) [Example 498, 2-{1-[2,6-difluoro-4-(6-butoxy-pyrazin-2-yl)phenyl]pyrrolidin-3-yl}acetic acid], the negative-log EC50 (pEC50) was above 6.70. Consider `CCCOc1ccnc(-c2cc(F)c(N3CCC(CC(=O)O)C3)c(F)c2)n1` (stereo not shown) [Example 499, 2-{1-[2,6-difluoro-4-(4-propoxy-pyrimidin-2-yl)phenyl]pyrrolidin-3-yl}acetic acid], for which the pEC50 was above 6.70.

With `CC(C)Oc1ccnc(-c2cc(F)c(N3CCC(CC(=O)O)C3)c(F)c2)n1` (stereo not shown) [Example 500, 2-{1-[2,6-difluoro-4-(4-isopropoxy-pyrimidin-2-yl)phenyl]pyrrolidin-3-yl}acetic acid], the pEC50 was above 6.70. Take `CCOc1ccnc(-c2cc(F)c(N3CCC(CC(=O)O)C3)c(F)c2)n1` (stereo not shown) [Example 501, 2-{1-[2,6-difluoro-4-(4-ethoxy-pyrimidin-2-yl)phenyl]pyrrolidin-3-yl}acetic acid]: the negative-log EC50 (pEC50) was above 6.70. For the compound `CC(C)COc1ccnc(-c2cc(F)c(N3CCC(CC(=O)O)C3)c(F)c2)n1` (stereo not shown) [Example 502, 2-{1-[2,6-difluoro-4-(4-isobutoxy-pyrimidin-2-yl)phenyl]pyrrolidin-3-yl}acetic acid], the pEC50 was 5.70 to 6.70. As for `CC(C)CNc1cncc(-c2cc(F)c(N3CCC(CC(=O)O)C3)c(F)c2)n1` (stereo not shown) [Example 503, 2-{1-[2,6-difluoro-4-(6-isobutylamino-pyrazin-2-yl)phenyl]pyrrolidin-3-yl}acetic acid], the pEC50 is 5.70 to 6.70. Consider `O=C(O)CC1CCN(c2c(F)cc(-c3cncc(NC4CCCC4)n3)cc2F)C1` (stereo not shown) [Example 504, 2-{1-[2,6-difluoro-4-(6-cyclopentylamino-pyrazin-2-yl)phenyl]pyrrolidin-3-yl}acetic acid], for which the pEC50 is 5.70 to 6.70. As for `CC(C)Nc1cncc(-c2cc(F)c(N3CCC(CC(=O)O)C3)c(F)c2)n1` (stereo not shown) [Example 505, 2-{1-[2,6-difluoro-4-(6-isopropylamino-pyrazin-2-yl)phenyl]pyrrolidin-3-yl}acetic acid], the negative logarithm of the EC50 (pEC50) is 5.70 to 6.70. Regarding `CCN(CC)c1cncc(-c2cc(F)c(N3CCC(CC(=O)O)C3)c(F)c2)n1` (stereo not shown) [Example 506, 2-{1-[2,6-difluoro-4-(6-diethylamino-pyrazin-2-yl)phenyl]pyrrolidin-3-yl}acetic acid], the negative logarithm of the EC50 (pEC50) was 5.70 to 6.70. Take `O=C(O)CCC1CCc2cc(-c3cncc(OC4CCC4)n3)ccc2S1` (stereo not shown) [Example 507, 3-[6-(6-cyclobutoxy-pyrazin-2-yl)-thiochroman-2-yl]-propionic acid]: the pEC50 is 5.70 to 6.70. Turning to `O=C(O)CC1CCN(c2c(F)cc(-c3nccc(Oc4ccc(Cl)cc4)n3)cc2F)C1` (stereo not shown) [Example 509, 2-[1-[4-[4-(4-chlorophenoxy)pyrimidin-2-yl]-2,6-difluoro-phenyl]-pyrrolidin-3-yl]acetic acid], the pEC50 is 5.70 to 6.70.

Usually pEC50 stands for −log10 of the EC50, conventionally taken in molar units.
